Data taken from ChEMBL document CHEMBL1201862, “PubChem BioAssay data set” (2004).
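Cells were grown in 96-well plates and exposed to each compound for 48 hours at five concentrations; endpoints were interpolated linearly between bracketing concentrations, or set to the highest concentration if not reached. The concentration for 50% growth inhibition is given as GI50.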 Calls of active or inactive are those of the source. Cut-off read from the data, not from the text of the source: active = GI50 up to about 1.1 µM and inactive = higher.

How the values were obtained:
Experiment in all cases: NCI-60 cell line screen, 48 h
[1] = test system: SF-295
[2] = test system: OVCAR-8
[3] = test system: Malme-3M
[4] = test system: MDA-MB-435
[5] = test system: SW-620
[6] = test system: SNB-19
[7] = test system: HCT-116
[8] = test system: HT-29
[9] = test system: HCC 2998
[10] = test system: MCF7
[11] = test system: M14
[12] = test system: HOP-92
[13] = test system: 786-0
[14] = test system: SF-268
[15] = test system: UACC-257
[16] = test system: HL-60
[17] = test system: MDA-N
[18] = test system: NCI-H522
[19] = test system: SK-MEL-28
[20] = test system: SN12C

Measured: GI50

COc1cc(C2c3cc4c(cc3OC(N3CCOCC3)C2C)OCO4)cc(OC)c1OC(C)=O (configuration not stated)
inactive: [1] 4.15 µM | [2] 26 µM | [3] 5.9 µM | [4] 2.46 µM | [5] 6.12 µM | [6] 15.5 µM | [7] 7.52 µM | [8] 11.5 µM | [9] 11.9 µM | [10] 8.59 µM | [11] 9.06 µM | [12] 23.9 µM | [13] 15.8 µM | [14] 39.3 µM | [15] 53.8 µM | [16] 4.65 µM | [17] 1.99 µM | [18] 4.3 µM | [19] > 42.1 µM | [20] 17.7 µM

Cc1cn(CCCCCCOC(=O)NC(CCCNC(N)=O)C(=O)O)c(=O)[nH]c1=O (configuration not stated)
inactive: [1] > 100 µM | [2] > 100 µM | [4] > 100 µM | [5] > 100 µM | [6] > 100 µM | [7] > 100 µM | [8] > 100 µM | [9] > 100 µM | [10] > 100 µM | [11] > 100 µM | [12] > 100 µM | [13] > 100 µM | [14] > 100 µM | [15] > 100 µM | [16] > 100 µM | [17] > 100 µM | [19] > 100 µM | [20] > 100 µM

Cc1ccc2c(c1C)C(=O)C1(Cc3cc4c(cc3C1=O)CCC4)C2 (configuration not stated)
inactive: [1] > 100 µM | [2] > 100 µM | [3] > 100 µM | [4] > 100 µM | [5] > 100 µM | [6] > 100 µM | [7] > 100 µM | [8] > 100 µM | [9] > 100 µM | [10] > 100 µM | [11] > 100 µM | [12] > 100 µM | [13] > 100 µM | [14] > 100 µM | [15] > 100 µM | [16] > 100 µM | [17] > 100 µM | [18] > 100 µM | [19] > 100 µM | [20] > 100 µM

CC(NC(=O)N(C)C)NC(=O)N(C)C
inactive: [1] > 10 µM | [2] > 10 µM | [3] > 10 µM | [4] > 10 µM | [5] > 10 µM | [6] > 10 µM | [7] > 10 µM | [8] > 10 µM | [9] > 10 µM | [10] > 10 µM | [11] > 10 µM | [12] > 10 µM | [13] > 10 µM | [14] > 10 µM | [15] > 10 µM | [16] > 10 µM | [17] > 10 µM | [18] > 10 µM | [19] > 10 µM | [20] > 10 µM

COc1ccc(C(=C(I)c2ccccc2)c2ccc(OC)cc2)cc1
inactive: [1] > 100 µM | [2] > 100 µM | [3] > 100 µM | [4] > 100 µM | [5] > 100 µM | [6] > 100 µM | [7] 51.3 µM | [8] 7.23 µM | [9] > 100 µM | [10] 21.6 µM | [11] > 100 µM | [12] > 100 µM | [13] > 100 µM | [14] > 100 µM | [15] > 100 µM | [16] 64.9 µM | [17] > 100 µM | [18] > 100 µM | [19] > 100 µM | [20] > 100 µM

COC(=O)C1CCN(C(=O)OC(C)(C)C)CC1
inactive: [1] > 100 µM | [2] > 100 µM | [3] > 100 µM | [4] > 100 µM | [5] > 100 µM | [6] > 100 µM | [7] > 100 µM | [8] > 100 µM | [9] > 100 µM | [10] > 100 µM | [11] > 100 µM | [12] > 100 µM | [13] > 100 µM | [14] > 100 µM | [15] > 100 µM | [16] > 100 µM | [17] > 100 µM | [18] > 100 µM | [19] > 100 µM | [20] > 100 µM

C/C=N\n1c(C)c(C#N)c(C#N)c1N
inactive: [1] > 100 µM | [2] > 100 µM | [3] > 100 µM | [4] > 100 µM | [5] > 100 µM | [6] > 100 µM | [7] > 100 µM | [8] > 100 µM | [9] > 100 µM | [10] > 100 µM | [11] > 100 µM | [12] > 100 µM | [13] > 100 µM | [14] > 100 µM | [15] > 100 µM | [16] > 100 µM | [17] > 100 µM | [18] > 100 µM | [20] > 100 µM

CCOc1ccc(NC(=O)C(=O)Nn2c(N)nnc2N)cc1
inactive: [1] > 100 µM | [2] > 100 µM | [3] > 100 µM | [4] > 100 µM | [5] > 100 µM | [7] > 100 µM | [8] > 100 µM | [9] > 100 µM | [10] > 100 µM | [11] > 100 µM | [12] > 100 µM | [13] > 100 µM | [14] > 100 µM | [15] > 100 µM | [16] > 100 µM | [17] > 100 µM | [18] > 100 µM | [19] > 100 µM | [20] > 100 µM

O=C1CSC2(CC(/C=C/C=C/c3ccccc3)=NN2c2cccc(S(=O)(=O)O)c2)N1c1nc2ccccc2s1 (configuration not stated)
inactive: [2] 42.1 µM | [4] 21.6 µM | [5] 56.2 µM | [6] 36.4 µM | [7] 46.5 µM | [8] 64.3 µM | [9] 69.7 µM | [10] 29.6 µM | [11] 60.4 µM | [12] 34.8 µM | [13] 40.2 µM | [15] 40.6 µM | [16] 4.24 µM | [17] 52 µM | [18] 4.71 µM | [19] > 100 µM | [20] 62.5 µM

CCCNC1=C2C[C@@H](C)C[C@@H](OC)[C@@H](OC(=O)CCCN)[C@H](C)/C=C(\C)[C@@H](OC(N)=O)[C@H](OC)/C=C\C=C(/C)C(=O)NC(=CC1=O)C2=O
inactive: [1] 18.7 µM | [2] 20.7 µM | [3] 12.4 µM | [4] 13 µM | [5] 10.6 µM | [6] 14.6 µM | [7] 8.97 µM | [8] 7.05 µM | [9] 18.8 µM | [10] 7.69 µM | [11] 15.2 µM | [12] 12.7 µM | [13] 20.8 µM | [14] 15.3 µM | [16] 2.13 µM | [17] 10.3 µM | [18] 5.02 µM | [19] 17.6 µM | [20] 22.7 µM
